Source: patent US4315942A, “Intravenously administrable iron supplement” (New England Medical Center, Inc., priority 1979, dated 1982)

Legend:
[1] = Hgb and Hct after IV injection of the complex in a dog; format: in vivo; conditions: after injection of 12 mg Fe, IV push, about 10 minutes
Protocol: (§1) A 17 kg dog was premedicated and then anesthesized with IV sodium amytal. Through a femoral vein cutdown, the following studies were drawn before and after the addition of the iron complex solution: Hgb, Hct, serum Fe and TIBC (Total Iron Binding Capacity). In addition, serum Fe and TIBC were drawn after the addition of one half of the solution.
(§2) 40 ml of fresh stock solution (containing 6 mg of iron) were given by IV push through the femoral vein. The dog's ECG was monitored throughout the procedure. In approximately 10 minutes, the second set of studies were drawn and a second 40 ml were pushed. The final set of blood studies were drawn in approximately 10 minutes.

serum transferrin = assay: Serum Fe, TIBC and saturation of serum transferrin after IV injection of the complex in a dog (efficacy to increase bioavailable iron); format: in vivo; conditions: for serum Fe / TIBC (Total Iron Binding Capacity): IV push; for serum Fe: before injection 235 (dog fed an iron rich diet); for TIBC (Total Iron Binding Capacity): before injection 360
Protocol: as §1, §2

[2] = oral, relatively large daily doses; cited from earlier work
[3] = after injection of 6 mg Fe, about 10 minutes
[4] = after injection of 12 mg Fe, about 10 minutes after second 40 ml

Compound | Hgb ([1]; before injection 6.7) | Hct ([1]; before injection 20.5) | saturation of serum transferrin (serum transferrin; addition of 6 mg of iron, IV, serum Fe equal to the TIBC) | serum iron relative to TIBC (serum transferrin; after a further 6 mg of iron, IV) | serum Fe (serum transferrin; [3]) | TIBC (Total Iron Binding Capacity) (serum transferrin; [3]) | serum Fe (serum transferrin; [4]) | TIBC (Total Iron Binding Capacity) (serum transferrin; [4]) | side effects [2]
CC(=O)N[O-].CC(=O)N[O-].CC(=O)N[O-].[Fe+3] [ferric acetohydroxamic acid complex, iron (III) complex of acetohydroxamic acid] | 6.5 g% | 20.0% | saturated the serum transferrin | greater than the TIBC | 360 μg/100 ml | 360 μg/100 ml | 470 μg/100 ml | 330 μg/100 ml | –
ferrous sulfate | – | – | – | – | – | – | – | – | nausea, vomiting, constipation
